The values that follow come from ChEMBL document CHEMBL1201862, “PubChem BioAssay data set” (2004).

Some test systems named below: UACC-257; UO-31; MDA-MB-231; SK-MEL-28; M14; IGROV-1; U-251; MDA-N; COLO 205; PC-3; MDA-MB-435; 786-0; SF-268; HCC 2998; OVCAR-4; HL-60; SF-295; HCT-116; SK-MEL-2; SR.
Common to all, as to assay: DTP human tumour cell line panel, 48 h

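Where inhibition never reached the appropriate level, the endpoint shown equals the highest concentration tested. Otherwise, values were interpolated linearly from a five-concentration, 48-hour dose response in 96-well plates. GI50 = concentration required for 50% inhibition of growth.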 Calls of active or inactive are those of the source. Rule as the data show it: active = GI50 up to about 1.1 µM and inactive = higher. A value given as a limit tells only on which side of the number the result lay.

For `COc1ccc2c(c1)CCc1c(-c3noc4c3CCc3cc(OC)ccc3-4)noc1-2`, the GI50 in the experiment on UACC-257, with UO-31, in the experiment on MDA-MB-231, in the experiment on SK-MEL-28, in the experiment with M14 and with IGROV-1 was > 100 µM (inactive) throughout. The GI50 in the experiment on U-251, in the experiment on MDA-N, with COLO 205, in the experiment with PC-3, in the experiment on MDA-MB-435 and with 786-0 was > 100 µM (inactive) each time. Further, the GI50 is > 100 µM (inactive) in the experiment on SF-268; 40.4 µM (inactive) with HCC 2998; > 100 µM (inactive) in the experiment on OVCAR-4; > 100 µM (inactive) in the experiment on HL-60; > 100 µM (inactive) in the experiment on SF-295; > 100 µM (inactive) in the experiment with HCT-116. In addition, the GI50 in the experiment with SK-MEL-2 and in the experiment on SR was > 100 µM (inactive) each time.
Consider `C[N+](C)(C)CC(=O)N/N=C(/CC1OC(=O)c2ccccc21)c1ccccc1O` (stereo not given), for which the GI50 with UACC-257 was 24 µM (inactive); with UO-31, 24.2 µM (inactive); in the experiment on MDA-MB-231, 95.9 µM (inactive); in the experiment with SK-MEL-28, 29.2 µM (inactive); with M14 it was > 100 µM (inactive); with IGROV-1, 37.8 µM (inactive). Moreover, the GI50 with U-251 is 22 µM (inactive); in the experiment on MDA-N, 54.1 µM (inactive); with COLO 205, 68.2 µM (inactive); in the experiment on PC-3 it was 60.5 µM (inactive); with MDA-MB-435, 30.6 µM (inactive); in the experiment on 786-0, 25.8 µM (inactive). Moreover, the GI50 in the experiment on SF-268 is 81.8 µM (inactive); with HCC 2998, 22.4 µM (inactive); in the experiment with OVCAR-4, 45.1 µM (inactive); in the experiment on HL-60 it was 16.2 µM (inactive); in the experiment with SF-295 it was 42.4 µM (inactive); in the experiment with HCT-116 it was 28.4 µM (inactive). For the same molecule, the GI50 is 72.8 µM (inactive) in the experiment with SK-MEL-2 and 14.3 µM (inactive) in the experiment on SR.
Take `CC(=O)OC1C(C)OC(OC(=O)C2CCC3C(C2)OC2(CC(OC(=O)/C=C/c4ccccc4)C(C)CO2)C32CO2)C(OC2OC(C)C(O)C(OC(C)=O)C2O)C1O` (stereo not given): the GI50 was < 0.01 µM (active) in the experiment with UACC-257; 0.499 µM (active) in the experiment on UO-31; < 0.01 µM (active) in the experiment with MDA-MB-231; < 0.01 µM (active) in the experiment on SK-MEL-28; < 0.01 µM (active) with M14; < 0.01 µM (active) in the experiment on IGROV-1. Also, the GI50 in the experiment on U-251, with MDA-N, with COLO 205, in the experiment on PC-3, in the experiment on MDA-MB-435 and in the experiment with 786-0 was < 0.01 µM (active) in each case. The GI50 in the experiment with SF-268, in the experiment on HCC 2998, with OVCAR-4, in the experiment on HL-60, with SF-295 and in the experiment with HCT-116 was < 0.01 µM (active) each time. Further, the GI50 in the experiment on SK-MEL-2 and in the experiment with SR was < 0.01 µM (active) throughout.
As to `CN(C)CCC(C(=O)C(C)(C)C)c1ccccn1` (stereo not given), the GI50 in the experiment on UACC-257, in the experiment on UO-31, in the experiment on MDA-MB-231, in the experiment on SK-MEL-28, in the experiment on M14 and in the experiment on IGROV-1 was > 100 µM (inactive) in each case. For the same molecule, the GI50 in the experiment on U-251, in the experiment on MDA-N, in the experiment on COLO 205, in the experiment on PC-3, in the experiment on MDA-MB-435 and in the experiment with 786-0 was > 100 µM (inactive) each time. Further, the GI50 with SF-268, in the experiment with HCC 2998, with OVCAR-4, in the experiment with HL-60, in the experiment on SF-295 and with HCT-116 was > 100 µM (inactive) in each case. The GI50 with SK-MEL-2 and with SR was > 100 µM (inactive) in each case.
With `CN(C)C(=O)c1nnsc1NN=O`, the GI50 in the experiment on UACC-257, in the experiment with UO-31, in the experiment with MDA-MB-231, in the experiment with SK-MEL-28, in the experiment with M14 and in the experiment on IGROV-1 was > 100 µM (inactive) throughout. The GI50 in the experiment on U-251, in the experiment on MDA-N, with COLO 205, in the experiment on PC-3, in the experiment on MDA-MB-435 and with 786-0 was > 100 µM (inactive) throughout. The GI50 in the experiment with SF-268, in the experiment on HCC 2998, in the experiment with OVCAR-4, with HL-60, with SF-295 and in the experiment on HCT-116 was > 100 µM (inactive) throughout. Moreover, the GI50 with SK-MEL-2 and in the experiment on SR was > 100 µM (inactive) each time.
Turning to `COc1cc(Cn2c3c(c4cc(O)ccc42)C(=O)c2ccccc2C3=O)cc(OC)c1`, the GI50 is 39.2 µM (inactive) in the experiment with UACC-257; 4.32 µM (inactive) in the experiment on UO-31; 5.32 µM (inactive) in the experiment on MDA-MB-231; 7.96 µM (inactive) in the experiment on SK-MEL-28; 16.3 µM (inactive) in the experiment on M14; 2.11 µM (inactive) in the experiment with IGROV-1. Besides, the GI50 with U-251 is 3.6 µM (inactive); in the experiment on MDA-N it was 1.49 µM (inactive); in the experiment on COLO 205, 12.6 µM (inactive); with PC-3, 2.46 µM (inactive); in the experiment with MDA-MB-435, 0.743 µM (active); in the experiment with 786-0, 2.37 µM (inactive). Further, the GI50 is 2.88 µM (inactive) in the experiment with SF-268; 6.19 µM (inactive) in the experiment on HCC 2998; 4.86 µM (inactive) in the experiment with OVCAR-4; 13.7 µM (inactive) with HL-60; 6.85 µM (inactive) in the experiment with SF-295; 0.881 µM (active) in the experiment on HCT-116. For the same molecule, the GI50 was 14.7 µM (inactive) with SK-MEL-2 and 0.494 µM (active) in the experiment with SR.
Regarding `CN(C)CCN(c1ccccn1)c1ccccn1`, the GI50 in the experiment on UACC-257, in the experiment with UO-31, in the experiment on MDA-MB-231, in the experiment with SK-MEL-28, in the experiment on M14 and in the experiment with IGROV-1 was > 100 µM (inactive) each time. The GI50 with U-251, with MDA-N, with COLO 205, in the experiment on PC-3, with MDA-MB-435 and in the experiment with 786-0 was > 100 µM (inactive) throughout. In addition, the GI50 with SF-268, in the experiment on HCC 2998, with OVCAR-4, with HL-60, with SF-295 and in the experiment on HCT-116 was > 100 µM (inactive) throughout. The GI50 in the experiment with SK-MEL-2 and with SR was > 100 µM (inactive) in each case.

As usually defined, the GI50 is the concentration that inhibits growth by half.
